According to patent publication US11110091B2, “Modulators of toll-like receptors” (Gilead Sciences, Inc., priority 2008, dated 2021):

What follows are compounds tested on human Peripheral Blood Mononuclear Cell (PMBC) (assay: PBMC assay: cytokine (IFN-α) stimulation at 24 hours). Conditions: lowest concentration stimulating IFN-α production at least 3-fold over background, Luminex, read-out: IFN MEC.
Type: cell-based
Procedure: Assays were conducted to determine cytokine stimulation at 24 hours from human Peripheral Blood Mononuclear Cell (PMBC) using the compounds of the present invention. The assays were run in duplicate, with 8-point, half-log dilution curves. The compounds of the present invention were diluted from 10 mM DMSO solution. Cell supernatants are assayed directly for IFNα and 1:10 dilution for TNFα. The assays were performed in a similar fashion as described in Bioorg. […] Specifically, cryo-preserved PBMCs were thawed and seeded 96 well plates with 750,000 cells/well in 190 μL/well cell media. The PBMCs were then incubated for 1 hour at 37° C. at 5% CO2. Then, the compounds of the present invention were added in 10 μL cell media at 8 point, half-log dilution titration. The plates were incubated at 37° C. and 5% CO2 for 24 hours and then spinned at 1200 rpm for 10 min, which was followed by collecting supernatant and storing the same at −80° C. Cytokine secretion was assayed with Luminex and Upstate multi-plex kits, using a Luminex analysis instrument. The IFN-α MEC value for a compound was the lowest concentration at which the compound stimulated IFN-α production at least 3-fold over the background as determined using the assay method above.
With `CCOC(=O)CN(Cc1cccc(CN2CCCC2)c1)c1nc(O[C@@H](C)COC)nc(N)c1[N+](=O)[O-]` [Compound 86] the minimal effective concentration was ≤ 0.03 µM.
With `COCCOc1nc(N)c2c(n1)N(Cc1cccc(CN3CCCC3)c1)CC(=O)N2` [Example 2] the minimal effective concentration was ≤ 0.03 µM.
In the case of `CCCCOc1nc(N)c2c(n1)N(Cc1cccc(CN3CCCC3)c1)C1(CC1)C(=O)N2` [Example 3, 4-Amino-2-n-butoxy-7-(1′″,2′″-ethylidene)-8-[3′-(pyrrolidin-1″-ylmethyl)-benzyl]-5,6,7,8-tetrahydropteridine-6-one], the minimal effective concentration is reported as > 0.03 µM.
`CCCCOc1nc(N)c2c(n1)N(Cc1ccc(CN3CCCC3)cc1)CC(=O)N2` [Example 4, 4-amino-2-n-butoxy-8-[4′-(pyrrolidin-1″-ylmethyl)-benzyl]-5,6,7,8-tetrahydropteridin-6-one] was tested, and the minimal effective concentration was ≤ 0.03 µM.
With `Nc1nc(OCC2CC2)nc2c1NC(=O)CN2Cc1cccc(CN2CCCC2)c1` [Example 5, 4-amino-2-{(cyclopropyl)methoxy}-8-[3′-(pyrrolidin-1″-ylmethyl)-benzyl]-5,6,7,8-tetrahydropteridin-6-one] the minimal effective concentration was > 0.03 µM.
For `CC1(COc2nc(N)c3c(n2)N(Cc2cccc(CN4CCCC4)c2)CC(=O)N3)CC1` [Example 6, 4-amino-2-{(1′″-methylcycloprop-1′″-yl)methoxy}-8-[3′-(pyrrolidin-1″-ylmethyl)-benzyl]-5,6,7,8-tetrahydropteridin-6-one], the minimal effective concentration was > 0.03 µM.
`Nc1nc(OCC2CCC2)nc2c1NC(=O)CN2Cc1cccc(CN2CCCC2)c1` [Example 7, 4-amino-2-{(cyclobutyl)methoxy}-8-[3′-(pyrrolidin-1″-ylmethyl)-benzyl]-5,6,7,8-tetrahydropteridin-6-one] was tested, and the minimal effective concentration was > 0.03 µM.
`Nc1nc(OCC2CCCC2)nc2c1NC(=O)CN2Cc1cccc(CN2CCCC2)c1` [Example 8, 4-amino-2-{(cyclopentyl)methoxy}-8-[3′-(pyrrolidin-1″-ylmethyl)-benzyl]-5,6,7,8-tetrahydropteridin-6-one] was tested, and the minimal effective concentration was > 0.03 µM.
For `Nc1nc(OCCC2CC2)nc2c1NC(=O)CN2Cc1cccc(CN2CCCC2)c1` [Example 9, 4-amino-2-{2′″-(cyclopropyl)ethoxy}-8-[3′-(pyrrolidin-1″-ylmethyl)-benzyl]-5,6,7,8-tetrahydropteridin-6-one], the minimal effective concentration was ≤ 0.03 µM.
With `CC(C)COc1nc(N)c2c(n1)N(Cc1cccc(CN3CCCC3)c1)CC(=O)N2` [Example 10] the minimal effective concentration was > 0.03 µM.
For `CC(C)CCOc1nc(N)c2c(n1)N(Cc1cccc(CN3CCCC3)c1)CC(=O)N2` [Example 11], the minimal effective concentration was > 0.03 µM.
For `CCCCCOc1nc(N)c2c(n1)N(Cc1cccc(CN3CCCC3)c1)CC(=O)N2` [Example 12], the minimal effective concentration was > 0.03 µM.
`Nc1nc(OCC2CCCCC2)nc2c1NC(=O)CN2Cc1cccc(CN2CCCC2)c1` [Example 13] was tested, and the minimal effective concentration was > 0.03 µM.
With `CC(C)(C)COc1nc(N)c2c(n1)N(Cc1cccc(CN3CCCC3)c1)CC(=O)N2` [Example 14] the minimal effective concentration was > 0.03 µM.
For `Nc1nc(OCc2ccccc2)nc2c1NC(=O)CN2Cc1cccc(CN2CCCC2)c1` [Example 15], the minimal effective concentration was > 0.03 µM.
In the case of `Nc1nc(OCc2cccnc2)nc2c1NC(=O)CN2Cc1cccc(CN2CCCC2)c1` [Example 16], the minimal effective concentration is reported as > 0.03 µM.
`Nc1nc(OCC2CCOC2)nc2c1NC(=O)CN2Cc1cccc(CN2CCCC2)c1` (centres unmarked) [Example 17] was tested, and the minimal effective concentration was > 0.03 µM.
`COP(=O)(CCOc1nc(N)c2c(n1)N(Cc1cccc(CN3CCCC3)c1)CC(=O)N2)OC` [Example 18] was tested, and the minimal effective concentration was > 0.03 µM.
With `Nc1nc(OCCn2ccnc2)nc2c1NC(=O)CN2Cc1cccc(CN2CCCC2)c1` [Example 19] the minimal effective concentration was > 0.03 µM.
In the case of `CS(=O)(=O)CCOc1nc(N)c2c(n1)N(Cc1cccc(CN3CCCC3)c1)CC(=O)N2` [Example 20], the minimal effective concentration is reported as > 0.03 µM.
With `Nc1nc(OC2CCCC2)nc2c1NC(=O)CN2Cc1cccc(CN2CCCC2)c1` [Example 21] the minimal effective concentration was ≤ 0.03 µM.
`Nc1nc(OCCN2CCCC2=O)nc2c1NC(=O)CN2Cc1cccc(CN2CCCC2)c1` [Example 22] was tested, and the minimal effective concentration was > 0.03 µM.
For `Nc1nc(OCCOc2ccccc2)nc2c1NC(=O)CN2Cc1cccc(CN2CCCC2)c1` [Example 23], the minimal effective concentration was > 0.03 µM.
In the case of `CCCC(C)Oc1nc(N)c2c(n1)N(Cc1cccc(CN3CCCC3)c1)CC(=O)N2` (centres unmarked) [Example 24], the minimal effective concentration is reported as ≤ 0.03 µM.
With `CCC(CC)Oc1nc(N)c2c(n1)N(Cc1cccc(CN3CCCC3)c1)CC(=O)N2` [Example 25] the minimal effective concentration was ≤ 0.03 µM.
With `CCCCSc1nc(N)c2c(n1)N(Cc1cccc(CN3CCCC3)c1)CC(=O)N2` [Example 26] the minimal effective concentration was > 0.03 µM.
With `Nc1nc(OCCCCO)nc2c1NC(=O)CN2Cc1cccc(CN2CCCC2)c1` [Example 27] the minimal effective concentration was > 0.03 µM.
`CC(C)(O)CCOc1nc(N)c2c(n1)N(Cc1cccc(CN3CCCC3)c1)CC(=O)N2` [Example 28] was tested, and the minimal effective concentration was > 0.03 µM.
With `Nc1nc(OCC2CCCO2)nc2c1NC(=O)CN2Cc1cccc(CN2CCCC2)c1` (centres unmarked) [Example 29] the minimal effective concentration was > 0.03 µM.
`Nc1nc(OCC2CCOCC2)nc2c1NC(=O)CN2Cc1cccc(CN2CCCC2)c1` [Example 30] was tested, and the minimal effective concentration was ≤ 0.03 µM.
For `CCC(CC)COc1nc(N)c2c(n1)N(Cc1cccc(CN3CCCC3)c1)CC(=O)N2` [Example 31], the minimal effective concentration was ≤ 0.03 µM.
`CCCCNc1nc(N)c2c(n1)N(Cc1cccc(CN3CCCC3)c1)CC(=O)N2` [Example 32] was tested, and the minimal effective concentration was > 0.03 µM.
In the case of `COCCNc1nc(N)c2c(n1)N(Cc1cccc(CN3CCCC3)c1)CC(=O)N2` [Example 33], the minimal effective concentration is reported as > 0.03 µM.
`CC(C)(C)CNc1nc(N)c2c(n1)N(Cc1cccc(CN3CCCC3)c1)CC(=O)N2` [Example 34] was tested, and the minimal effective concentration was > 0.03 µM.
For `Nc1nc(NC2CC2)nc2c1NC(=O)CN2Cc1cccc(CN2CCCC2)c1` [Example 35], the minimal effective concentration was > 0.03 µM.
`Nc1nc(NC2CCCCC2)nc2c1NC(=O)CN2Cc1cccc(CN2CCCC2)c1` [Example 36] was tested, and the minimal effective concentration was > 0.03 µM.
In the case of `COC[C@H](C)Nc1nc(N)c2c(n1)N(Cc1cccc(CN3CCCC3)c1)CC(=O)N2` [Example 37], the minimal effective concentration is reported as ≤ 0.03 µM.
For `Nc1nc(NCc2ccco2)nc2c1NC(=O)CN2Cc1cccc(CN2CCCC2)c1` [Example 38], the minimal effective concentration was ≤ 0.03 µM.
`Nc1nc(NCC2CC2)nc2c1NC(=O)CN2Cc1cccc(CN2CCCC2)c1` [Example 39] was tested, and the minimal effective concentration was ≤ 0.03 µM.
For `Nc1nc(NC2CCC2)nc2c1NC(=O)CN2Cc1cccc(CN2CCCC2)c1` [Example 40], the minimal effective concentration was ≤ 0.03 µM.
With `Nc1nc(NC2CCCC2)nc2c1NC(=O)CN2Cc1cccc(CN2CCCC2)c1` [Example 41] the minimal effective concentration was ≤ 0.03 µM.
In the case of `Nc1nc(N2CCC2)nc2c1NC(=O)CN2Cc1cccc(CN2CCCC2)c1` [Example 42], the minimal effective concentration is reported as > 0.03 µM.
With `Nc1nc(N2CCCC2)nc2c1NC(=O)CN2Cc1cccc(CN2CCCC2)c1` [Example 43] the minimal effective concentration was ≤ 0.03 µM.
In the case of `CS(=O)(=O)CCNc1nc(N)c2c(n1)N(Cc1cccc(CN3CCCC3)c1)CC(=O)N2` [Example 44], the minimal effective concentration is reported as > 0.03 µM.
`CCOP(=O)(CCNc1nc(N)c2c(n1)N(Cc1cccc(CN3CCCC3)c1)CC(=O)N2)OCC` [Example 45] was tested, and the minimal effective concentration was > 0.03 µM.
With `Nc1nc(N[C@@H]2CCOC2)nc2c1NC(=O)CN2Cc1cccc(CN2CCCC2)c1` [Example 46] the minimal effective concentration was > 0.03 µM.
`CCCCOc1nc(N)c2c(n1)N(Cc1cccc(CN3CCCC3)c1)CC(=O)N2` [Example 49, 4-amino-2-n-butoxy-8-[3′-(pyrrolidin-1″-ylmethyl)-benzyl]-5,6,7,8-tetrahydropteridin-6-one] was tested, and the minimal effective concentration was ≤ 0.03 µM.
With `CCCCOc1nc(N)c2c(n1)N(Cc1cccc(CN3CCCC3)c1)CCC(=O)N2` [Example 50] the minimal effective concentration was > 0.03 µM.
In the case of `CCCCOc1nc(N)c2c(n1)N(Cc1ccc3c(c1)CNCC3)CC(=O)N2` [Example 51], the minimal effective concentration is reported as ≤ 0.03 µM.
`CCCCOc1nc(N)c2c(n1)N(Cc1ccc3c(c1)CN(CC)CC3)CC(=O)N2` [Example 52] was tested, and the minimal effective concentration was ≤ 0.03 µM.
For `CCCCCc1nc(N)c2c(n1)N(Cc1cccc(CN3CCCC3)c1)CC(=O)N2` [Example 53], the minimal effective concentration was > 0.03 µM.
`CCCCOc1nc(N)c2c(n1)N(Cc1cccc(CN3CCC(C(=O)OC)CC3)c1)CC(=O)N2` [Example 54] was tested, and the minimal effective concentration was > 0.03 µM.
For `Nc1nc(OCCC(F)(F)F)nc2c1NC(=O)CN2Cc1cccc(CN2CCCC2)c1` [Example 55], the minimal effective concentration was ≤ 0.03 µM.
`Nc1nc(OCCCC(F)(F)F)nc2c1NC(=O)CN2Cc1cccc(CN2CCCC2)c1` [Example 56] was tested, and the minimal effective concentration was ≤ 0.03 µM.
With `CCCCOc1nc(N)c2c(n1)N(Cc1ccccc1CN1CCCC1)CC(=O)N2` [Example 57] the minimal effective concentration was > 0.03 µM.
In the case of `CCC[C@@H](C)Oc1nc(N)c2c(n1)N(Cc1cccc(CN3CCCC3)c1)CC(=O)N2` [Example 58], the minimal effective concentration is reported as > 0.03 µM.
`CCC[C@H](C)Oc1nc(N)c2c(n1)N(Cc1cccc(CN3CCCC3)c1)CC(=O)N2` [Example 59] was tested, and the minimal effective concentration was ≤ 0.03 µM.
In the case of `CCC[C@@H](C)Oc1nc(N)c2c(n1)N(Cc1ccc(CN3CCCC3)cc1)CC(=O)N2` [Example 60], the minimal effective concentration is reported as > 0.03 µM.
For `CCC[C@H](C)Oc1nc(N)c2c(n1)N(Cc1ccc(CN3CCCC3)cc1)CC(=O)N2` [Example 61], the minimal effective concentration was ≤ 0.03 µM.
For `CCOc1nc(N)c2c(n1)N(Cc1cccc(CN3CCCC3)c1)CC(=O)N2` [Example 62], the minimal effective concentration was > 0.03 µM.
With `Nc1nc(O)nc2c1NC(=O)CN2Cc1cccc(CN2CCCC2)c1` [Example 63] the minimal effective concentration was > 0.03 µM.
With `CCCCOc1nc(N)c2c(n1)N(Cc1cccc(CN3CCCC3)c1)C(C)C(=O)N2` (centres unmarked) [Example 64] the minimal effective concentration was > 0.03 µM.
